Converted amounts (≈) assume the structure as drawn.
What was measured:
Escherichia coli = assay: Antibacterial activity against Escherichia coli assessed as inhibition of bacterial growth; format: functional
Staphylococcus aureus = assay: Antibacterial activity against methicillin-resistant Staphylococcus aureus assessed as inhibition of bacterial growth; format: functional
[1] = test system: Mycolicibacterium smegmatis; assay: Antibacterial activity against Mycobacterium smegmatis assessed as inhibition of bacterial growth; format: functional
[2] = Oral bioavailability in Sprague-Dawley rat at 15 mg/kg measured for 24 hrs by LC-MS analysis; format: ADME, organism-based; details: in vivo
[3] = test system: Mycobacteroides abscessus; assay: Antibacterial activity against Mycobacterium abscessus assessed as inhibition of bacterial growth; format: functional
[4] = biological target: T1, Dihydrofolate reductase (Mycobacterium tuberculosis) (UniProt P9WNX1); assay: Inhibition of Mycobacterium tuberculosis DHFR at 100 uM relative to control
T1 sequence (whole entry): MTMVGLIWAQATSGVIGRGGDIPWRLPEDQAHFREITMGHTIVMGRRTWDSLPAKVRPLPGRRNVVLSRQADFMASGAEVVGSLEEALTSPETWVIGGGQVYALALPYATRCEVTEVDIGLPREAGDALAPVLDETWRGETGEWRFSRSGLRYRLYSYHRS

[5] = biological target: T1, Dihydrofolate reductase (Mycobacterium tuberculosis); assay: Inhibition of Mycobacterium tuberculosis DHFR at 10 uM relative to control
[6] = test system: Mycobacterium tuberculosis; assay: Antibacterial activity against Mycobacterium tuberculosis clinical isolate K16 assessed as inhibition of bacterial growth incubated for 6 days by microplate alamar blue assay; format: functional; details: K16, 144 h, time 6 day
[7] = test system: Mycobacterium tuberculosis; assay: Antibacterial activity against Mycobacterium tuberculosis clinical isolate K4 assessed as inhibition of bacterial growth incubated for 6 days by microplate alamar blue assay; format: functional; details: K4, 144 h, time 6 day
[8] = test system: Mycobacterium tuberculosis; assay: Antibacterial activity against Mycobacterium tuberculosis H37Rv assessed as inhibition of bacterial growth incubated for 6 days by microplate alamar blue assay; format: functional; details: 144 h, time 6 day
[9] = test system: Mycobacterium tuberculosis; assay: Antibacterial activity against Mycobacterium tuberculosis clinical isolate K5 assessed as inhibition of bacterial growth incubated for 6 days by microplate alamar blue assay; format: functional; details: K5, 144 h, time 6 day
[10] = test system: Mycobacterium tuberculosis; assay: Antibacterial activity against Mycobacterium tuberculosis clinical isolate K12 assessed as inhibition of bacterial growth incubated for 6 days by microplate alamar blue assay; format: functional; details: K12, 144 h, time 6 day
[11] = AUC(0 to t) in Sprague-Dawley rat at 5 mg/kg, iv measured for 24 hrs by LC-MS analysis; format: ADME, organism-based; set-up: dose 5 mg/kg, time 24 hrs, route iv; details: in vivo
[12] = Toxicity in BALB/c mouse assessed as mouse death at 800 mg/kg, po measured for 2 weeks; format: organism-based; details: in vivo, 336 h
[13] = Apparent clearance during terminal phase in Sprague-Dawley rat at 5 mg/kg, iv measured for 24 hrs by LC-MS analysis; format: ADME, organism-based; details: in vivo
[14] = Toxicity in BALB/c mouse assessed as reduction in LDH level at 800 mg/kg, po measured at 14 days; format: organism-based; details: in vivo, 336 h, time 14 day
[15] = biological target: T2, Serine/threonine-protein kinase PknB (Mycobacterium tuberculosis) (UniProt P9WI81); assay: Binding affinity to Mycobacterium tuberculosis PknB assessed as thermal stability by measuring change in melting temperature at 100 uM incubated for 0.5 hrs by SYPRO orange dye based differential scanning fluorimetry analysis
T2 sequence (whole entry): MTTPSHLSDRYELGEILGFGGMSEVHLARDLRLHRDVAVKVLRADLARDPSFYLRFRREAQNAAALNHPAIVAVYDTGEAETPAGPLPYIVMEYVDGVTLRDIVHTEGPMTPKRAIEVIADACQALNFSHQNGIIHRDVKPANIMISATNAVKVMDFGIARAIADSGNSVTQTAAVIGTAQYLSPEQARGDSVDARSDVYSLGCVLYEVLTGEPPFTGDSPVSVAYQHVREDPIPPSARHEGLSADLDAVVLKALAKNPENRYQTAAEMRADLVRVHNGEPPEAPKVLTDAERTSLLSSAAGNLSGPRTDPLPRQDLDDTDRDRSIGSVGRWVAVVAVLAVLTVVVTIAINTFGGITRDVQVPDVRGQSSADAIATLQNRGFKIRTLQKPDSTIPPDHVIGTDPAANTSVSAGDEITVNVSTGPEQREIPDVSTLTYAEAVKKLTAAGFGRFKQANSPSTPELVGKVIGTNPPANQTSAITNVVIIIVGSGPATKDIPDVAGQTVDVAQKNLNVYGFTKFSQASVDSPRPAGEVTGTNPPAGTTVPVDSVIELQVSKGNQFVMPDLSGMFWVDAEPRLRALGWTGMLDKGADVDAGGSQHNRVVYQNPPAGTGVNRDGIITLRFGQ

[16] = test system: Mycobacterium tuberculosis; assay: Antitubercular activity against marker free autoluminescent Mycobacterium tuberculosis H37Ra assessed as reduction in relative light unit measured once a day for 6 days; format: functional; details: 144 h, time 6 day
[17] = Toxicity in BALB/c mouse assessed as increase in AST level at 800 mg/kg, po measured at 14 days; format: organism-based; details: in vivo, 336 h, time 14 day
[18] = AUC(0 to t) in Sprague-Dawley rat at 15 mg/kg, po measured for 24 hrs by LC-MS analysis; format: ADME, organism-based; set-up: dose 15 mg/kg, time 24 hrs, route po; details: in vivo
[19] = Half life in Sprague-Dawley rat at 5 mg/kg, iv measured for 24 hrs by LC-MS analysis; format: ADME, organism-based; details: in vivo
[20] = Toxicity in BALB/c mouse assessed as increase in uric acid level at 800 mg/kg, po measured at 14 days; format: organism-based; details: in vivo, 336 h, time 14 day
[21] = biological target: T2, Serine/threonine-protein kinase PknB (Mycobacterium tuberculosis); assay: Binding affinity to Mycobacterium tuberculosis PknB assessed as gibbs free energy at 600 uM by ITC analysis
[22] = biological target: T2, Serine/threonine-protein kinase PknB (Mycobacterium tuberculosis); assay: Binding affinity to Mycobacterium tuberculosis PknB assessed as thermal stability by measuring melting temperature at 100 uM incubated for 0.5 hrs by SYPRO orange dye based differential scanning fluorimetry analysis (reference value: 59 degreeC)
[23] = Toxicity in BALB/c mouse assessed as histopathological changes in kidney at 800 mg/kg, po measured at 14 days by H and E staining based analysis; format: organism-based; details: in vivo, 336 h, time 14 day
[24] = biological target: T3, Serine/threonine-protein kinase PknB (Mycobacterium tuberculosis, UniProt P9WI81); assay: Binding affinity to Mycobacterium tuberculosis PknB assessed as dissociation constant at 600 uM by ITC analysis
T3 sequence (P9WI81 whole entry): T2 sequence (whole entry)

[25] = test system: Mycobacterium tuberculosis; assay: Antitubercular activity against autoluminescent Mycobacterium tuberculosis H37Ra infected in BALB/c mouse assessed as reduction in relative light unit at 300 mg/kg, po administered once daily by oral gavage for 5 days and measured every 2 days by luminometer based analysis; format: functional; details: time 5 day
[26] = Toxicity in BALB/c mouse assessed as reduction in ALP level at 800 mg/kg, po measured at 14 days; format: organism-based; details: in vivo, 336 h, time 14 day
[27] = Cmax in Sprague-Dawley rat at 15 mg/kg, po measured for 24 hrs by LC-MS analysis; format: ADME, organism-based; set-up: dose 15 mg/kg, time 24 hrs, route po; details: in vivo
[28] = Cmax in Sprague-Dawley rat at 5 mg/kg, iv measured for 24 hrs by LC-MS analysis; format: ADME, organism-based; set-up: time 24 hrs, dose 5 mg/kg, route iv; details: in vivo
[29] = Toxicity in BALB/c mouse assessed as body weight loss at 800 mg/kg, po measured for 2 weeks; format: organism-based; details: in vivo, 336 h
[30] = Cytotoxicity against human HepG2 cells assessed as inhibition of cell growth incubated for 48 hrs by MTT assay; format: toxicity, cell-based
[31] = Tmax in Sprague-Dawley rat at 15 mg/kg, po measured for 24 hrs by LC-MS analysis; format: ADME, organism-based; details: in vivo
[32] = Toxicity in BALB/c mouse assessed as mouse death at 300 mg/kg, po measured after 6 days; format: organism-based; details: in vivo, 144 h, time 6 day

SMILES: Cc1cc(Nc2ncc(Cl)c(Nc3cccc4ccccc34)n2)c(OC(C)C)cc1C1CCNCC1
- MIC (Escherichia coli): > 16 µg/mL
- MIC (Staphylococcus aureus): 8 µg/mL (≈ 15.9 µM)
- MIC [1]: 16 µg/mL (≈ 31.9 µM)
- bioavailability [2]: 17.5%
- MIC [3]: 16 µg/mL (≈ 31.9 µM)
- inhibition [4]: 4.4%
- inhibition [5]: 3.1%

SMILES: NNC(=O)c1ccncc1 [ISONIAZID]
- MIC [6]: > 10 µg/mL
- MIC [7]: > 50 µg/mL
- MIC [8]: < 1 µg/mL
- MIC [9]: > 50 µg/mL
- MIC [10]: > 10 µg/mL

SMILES: CO[C@H]1/C=C/O[C@@]2(C)Oc3c(C)c(O)c4c(O)c(c(/C=N/N5CCN(C)CC5)c(O)c4c3C2=O)NC(=O)/C(C)=C\C=C\[C@H](C)[C@H](O)[C@@H](C)[C@@H](O)[C@@H](C)[C@H](OC(C)=O)[C@@H]1C [RIFAMPIN]
- MIC [6]: > 10 µg/mL
- MIC [7]: > 50 µg/mL
- MIC [8]: < 1 µg/mL
- MIC [9]: > 50 µg/mL
- MIC [10]: > 10 µg/mL

SMILES: Cc1cc(Nc2nc(-c3ccccc3)ncc2Cl)c(OC(C)C)cc1C1CCNCC1
- MIC (Escherichia coli): > 16 µg/mL
- MIC [6]: 1 µg/mL (≈ 2.29 µM)
- MIC (Staphylococcus aureus): 4 µg/mL (≈ 9.15 µM)
- MIC [7]: 0.5 µg/mL (≈ 1.14 µM)
- MIC [1]: 4 µg/mL (≈ 9.15 µM)
- AUC(0-t) at 24 h [11]: 1690 ng·h/mL
- Activity [12]: Non-Toxic
- CLz/F [13]: 25 mL/min/kg
- bioavailability [2]: 40.7%
- MIC [8]: 0.5 µg/mL (≈ 1.14 µM)
- MIC [3]: 4 µg/mL (≈ 9.15 µM)
- Activity [14]: Toxic
- ΔTm [15]: -5 °C
- inhibition [4]: 7.1%
- MIC [16]: 0.5 µg/mL (≈ 1.14 µM)
- Activity [17]: Toxic
- inhibition [5]: 4.5%
- MIC [9]: 1 µg/mL (≈ 2.29 µM)
- AUC(0-t) at 24 h [18]: 2080 ng·h/mL
- half-life [19]: 26.2 h
- Activity [20]: Toxic
- MIC [10]: 0.5 µg/mL (≈ 1.14 µM)
- deltaG [21]: -3.1 kcal/mol
- Tm [22]: 54 °C
- Activity [23]: Toxic
- Kd [24]: 9.4 µM
- Activity [25]: 0.5 log10RLU
- Activity [26]: Toxic
- Cmax [27]: 108 ng/mL
- Cmax [28]: 595 ng/mL
- Activity [29]: Non-Toxic
- IC50 at 48 h [30]: 3.1 µM
- Tmax [31]: > 24 h

SMILES: Cc1cc(Nc2nc(Nc3ccc(F)cc3)ncc2Cl)c(OC(C)C)cc1C1CCNCC1
- MIC (Escherichia coli): > 16 µg/mL
- MIC [6]: 2 µg/mL (≈ 4.26 µM)
- MIC (Staphylococcus aureus): 4 µg/mL (≈ 8.51 µM)
- MIC [7]: 1 µg/mL (≈ 2.13 µM)
- MIC [1]: 4 µg/mL (≈ 8.51 µM)
- MIC [8]: 1 µg/mL (≈ 2.13 µM)
- MIC [3]: 8 µg/mL (≈ 17 µM)
- inhibition [4]: 3.5%
- MIC [16]: 0.5 µg/mL (≈ 1.06 µM)
- inhibition [5]: 2.8%
- MIC [9]: 2 µg/mL (≈ 4.26 µM)
- Activity [32]: Toxic
- MIC [10]: 1 µg/mL (≈ 2.13 µM)
- IC50 at 48 h [30]: 2.2 µM
